As a reminder, the IC50 is the point on the concentration scale where inhibition reaches its midpoint.

The values below come from ChEMBL document CHEMBL3352731, “Evaluation of gambierol and its analogs for their inhibition of human Kv1.2 and cytotoxicity” (Bioorg Med Chem Lett, 2015).

Data set [1] has as its target Potassium voltage-gated channel subfamily A member 2 (Homo sapiens) (UniProt P16389). As to the kind of experiment: Inhibition of human Kv 1.2 stably expressed in CHO cells by whole cell patch clamp method. It is filed as cell-based. For orientation: In patch-clamp work, channel activity is measured electrically.
The subject of data set [2] is CHO. In words: Cytotoxicity against wild-type CHO cells assessed as growth inhibition after 72 hrs by WST-8 assay. It is filed as cell-based. To be noted: Cricetulus griseus.
In data set [3] the test system is CHO. As to the kind of experiment: Induction of leak current in wild-type CHO cells by electrophysiology method. It is filed as cell-based, Cricetulus griseus. To be noted: chinese hamster.
In data set [4] the test system is CHO. In words: Cytotoxicity against CHO cells transfected with human Kv 1.2 assessed as growth inhibition after 72 hrs by WST-8 assay. In kind it is cell-based. Particulars: Cricetulus griseus.

Chain of Potassium voltage-gated channel subfamily A member 2 (Homo sapiens) (P16389 whole entry): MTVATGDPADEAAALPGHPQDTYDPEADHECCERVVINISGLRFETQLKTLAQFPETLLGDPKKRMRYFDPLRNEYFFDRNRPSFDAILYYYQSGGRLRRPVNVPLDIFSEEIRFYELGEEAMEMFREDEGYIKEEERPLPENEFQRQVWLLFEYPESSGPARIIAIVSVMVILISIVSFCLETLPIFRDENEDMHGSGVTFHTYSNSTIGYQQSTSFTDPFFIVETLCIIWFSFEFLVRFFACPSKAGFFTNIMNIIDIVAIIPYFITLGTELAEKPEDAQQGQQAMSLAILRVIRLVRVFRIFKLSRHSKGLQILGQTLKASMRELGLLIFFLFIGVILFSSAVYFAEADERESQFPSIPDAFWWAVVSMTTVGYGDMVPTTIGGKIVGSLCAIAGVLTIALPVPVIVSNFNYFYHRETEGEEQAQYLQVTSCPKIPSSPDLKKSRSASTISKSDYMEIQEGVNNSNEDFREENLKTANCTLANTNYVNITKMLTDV

`C=CC/C=C\C=C/[C@H]1O[C@H]2C[C@H]3O[C@H]4CC[C@H]5O[C@H]6C[C@@]7(C)O[C@@]8(C)[C@@H](O)C[C@H](CCCO)O[C@@H]8C[C@@H]7O[C@@H]6C[C@@H]5O[C@]4(C)C[C@]3(C)O[C@@H]2C=C[C@]1(C)O`: the inhibition result in data set [1] was “Dose-dependent effect”. Besides, the half-maximal inhibitory concentration (IC50) with CHO [2] worked out at 78 µM; with CHO [4], 95 µM. In addition, the Activity result with CHO [3] is given as “Dose-dependent effect”.
In the case of `C=CC/C=C\C=C/[C@H]1O[C@H]2C[C@H]3O[C@H]4CCCCO[C@]4(C)C[C@]3(C)O[C@@H]2C=C[C@]1(C)O`, the IC50 in the data set on CHO [2] and in the data set on CHO [4] was more than 100 µM in each case.
Regarding `C=CC/C=C\C=C/[C@H]1O[C@H]2C[C@H]3O[C@H]4CC[C@H]5O[C@H]6C[C@@]7(C)OCCC[C@@H]7O[C@@H]6C[C@@H]5O[C@]4(C)C[C@]3(C)O[C@@H]2C=C[C@]1(C)O`, the IC50 with CHO [2] stood at 6 µM; in the data set with CHO [4] it was 6.5 µM.
